In brackets after ≈: the same amount, converted by molar mass. Like-named read-outs stand apart in the source and are kept apart here.
Tests used:
Permeability/efflux = format: in vitro ADME; conditions: Table 2, Permeability/efflux
Text: (§1) Additional physicochemical and pharmacological data are provided below in Tables 2-4 for Test Compounds 1 and 2 (Compounds […] and (2) as described herein).

mGluR5 = molecular target: T1, mGluR5 (Rattus norvegicus, UniProt P31424); experiment: mGluR5 IC50 / NAM profile of Tables 2 and 4; format: cell-based; conditions: Table 2, line under mGluR5 IC50
T1 construct: expressed in transfected cells
Experimental: Human embryonic kidney (HEK) cells transfected with rat or human mGluR5 were plated in clear bottom assay plates for assay in a Functional Drug Screening System (FDSS). The cells were loaded with a Ca2+-sensitive fluorescent dye (e.g., Fluo-4), and the plates were washed and placed in the FDSS instrument. Test compound was applied to cells 3 seconds after baseline readings were taken. Cells were incubated with the test compounds for 140 seconds and then stimulated with an EC20 concentration of an mGluR5 agonist (e.g., glutamate, 3,5-dihydroxyphenylglycine, or quisqualate); 60-80 seconds later an EC80 concentration of agonist was added and readings taken for an additional 40 seconds. Data were collected at 1 Hz. […] Concentration response curves were generated using a four parameter logistical equation.

Human PPB = format: in vitro ADME
Text: as §1

[1] = Solubility in SGF and FaSSIF; format: physicochemical
Text: as §1

[2] = test system: Marble Burying Activity in Mice; conditions: literature (Spooren 2000; Nicolas 2006); cited from earlier work
Mouse BHB = format: in vitro ADME
Text: as §1

[3] = Mouse PO PK (plasma and brain concentration); format: in vivo; conditions: Mouse PO 10 mg/kg; for concentration at 0.25 h / concentration at 0.5 h / concentration at 1 h / concentration at 3 h: mouse, po, 10 mg/kg
Text: as §1

[4] = intravenous administration to rhesus monkeys; cited from earlier work
cytochrome P450 1A2 = molecular target: T2, cytochrome P450 1A2 (Homo sapiens, UniProt P05177); conditions: cited from earlier work
T2 sequence (P05177 1-516): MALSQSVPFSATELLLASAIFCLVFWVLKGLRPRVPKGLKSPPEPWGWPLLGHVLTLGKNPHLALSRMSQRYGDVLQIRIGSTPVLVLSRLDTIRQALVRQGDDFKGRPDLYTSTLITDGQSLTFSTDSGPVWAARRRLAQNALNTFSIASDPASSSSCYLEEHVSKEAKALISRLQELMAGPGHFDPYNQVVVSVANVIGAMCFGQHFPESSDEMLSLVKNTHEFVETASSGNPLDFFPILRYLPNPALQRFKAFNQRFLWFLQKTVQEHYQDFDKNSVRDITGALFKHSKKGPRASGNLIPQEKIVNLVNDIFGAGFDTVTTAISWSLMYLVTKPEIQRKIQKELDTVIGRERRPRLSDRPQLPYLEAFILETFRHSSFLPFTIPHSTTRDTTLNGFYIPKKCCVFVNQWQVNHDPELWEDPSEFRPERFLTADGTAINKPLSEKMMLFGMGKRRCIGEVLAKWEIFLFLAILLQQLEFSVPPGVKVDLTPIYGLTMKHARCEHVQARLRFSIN

[5] = test system: Marble Burying Activity in Mice; experiment: Inhibition of marble burying in mice (model of anxiolytic behavior); format: in vivo; conditions: WT and Fmrl KO C57BL/6J mice
Experimental: It is well known that mice will bury foreign objects such as glass marbles in deep bedding (Deacon, R. M. J. Nature Protocols 2006, 1, 122-124). […] These facts along with the relative convenience of this assay make it a useful in vivo screening tool.
Doses of compound were suspended in vehicle (10% Tween 80 for intraperitoneal dosing and 0.5% methylcellulose for oral dosing), vortexed vigorously, heated gently with a Master Heat Gun (Master Appliance Corp., Racine, Wis.), and sonicated at 37° C. for 30 minutes. The pH was checked using 0-14 EMD strips and adjusted to approximately 7. All doses were administered at approximately 10 mL/kg.
Studies were conducted using male Harlan CD-1 mice (Harlan Sprague Dawley, Indianapolis, Ind.), weighing 30 to 35 grams. Subjects were housed in a large colony room under a 12 hour light/dark cycle (lights on at 6:00 a.m.) with food and water provided ad libitum. Test sessions were performed between 10:00 a.m. and 4:00 p.m. All dose groups consisted of ≧10 mice. All experiments were conducted in accordance with the National Institute of Health regulations of animal care covered in Principles of Laboratory Animal Care (National Institutes of Health publication 85-23, revised 1985) and were approved by the Institutional Animal Care and Use Committee.
Plexiglass cages (32×17×14 cm) were arranged on top of a large, round table. Mice were transported from the colony room to the testing room and allowed to habituate for 30 minutes. […] The novel compound and comparator were evaluated in a counterbalanced design, in which all doses of compounds were tested in each session. […] Clear, perforated plastic lids were set on top of each cage and the amount of marble burying was recorded over a 30 minute interval. The mice were then removed from the cages and the number of buried marbles was counted using the criteria of greater than ⅔ covered by bedding. […]
The data for the dose-response studies were analyzed by a between-group analysis of variance. […]

elevated plus maze = experiment: Elevated plus maze; format: in vivo; conditions: 30 mg/kg
Experimental: Test compounds (1) and (2) were administrated at the 10 mg/kg and 30 mg/kg doses described in this figure. […] Prospective In Vivo Effects

[6] = test system: N-methyl-D-aspartate (NMDA) receptor; conditions: at higher concentrations; cited from earlier work
mGluR4 = mGluR4 (Homo sapiens, UniProt Q14833); conditions: cited from earlier work
[7] = SGF, pH 1.6, simulated gastric fluid
[8] = brain, read-out: Brain Concentration
[9] = brain, read-out: Free Brain Concentration
[10] = brain, 3 h, read-out: Brain Concentration
[11] = brain, 3 h, read-out: Free Brain Concentration
[12] = plasma, read-out: Plasma Concentration

T1 sequence (P31424 21-1171 isoform P31424-2 limits assumed): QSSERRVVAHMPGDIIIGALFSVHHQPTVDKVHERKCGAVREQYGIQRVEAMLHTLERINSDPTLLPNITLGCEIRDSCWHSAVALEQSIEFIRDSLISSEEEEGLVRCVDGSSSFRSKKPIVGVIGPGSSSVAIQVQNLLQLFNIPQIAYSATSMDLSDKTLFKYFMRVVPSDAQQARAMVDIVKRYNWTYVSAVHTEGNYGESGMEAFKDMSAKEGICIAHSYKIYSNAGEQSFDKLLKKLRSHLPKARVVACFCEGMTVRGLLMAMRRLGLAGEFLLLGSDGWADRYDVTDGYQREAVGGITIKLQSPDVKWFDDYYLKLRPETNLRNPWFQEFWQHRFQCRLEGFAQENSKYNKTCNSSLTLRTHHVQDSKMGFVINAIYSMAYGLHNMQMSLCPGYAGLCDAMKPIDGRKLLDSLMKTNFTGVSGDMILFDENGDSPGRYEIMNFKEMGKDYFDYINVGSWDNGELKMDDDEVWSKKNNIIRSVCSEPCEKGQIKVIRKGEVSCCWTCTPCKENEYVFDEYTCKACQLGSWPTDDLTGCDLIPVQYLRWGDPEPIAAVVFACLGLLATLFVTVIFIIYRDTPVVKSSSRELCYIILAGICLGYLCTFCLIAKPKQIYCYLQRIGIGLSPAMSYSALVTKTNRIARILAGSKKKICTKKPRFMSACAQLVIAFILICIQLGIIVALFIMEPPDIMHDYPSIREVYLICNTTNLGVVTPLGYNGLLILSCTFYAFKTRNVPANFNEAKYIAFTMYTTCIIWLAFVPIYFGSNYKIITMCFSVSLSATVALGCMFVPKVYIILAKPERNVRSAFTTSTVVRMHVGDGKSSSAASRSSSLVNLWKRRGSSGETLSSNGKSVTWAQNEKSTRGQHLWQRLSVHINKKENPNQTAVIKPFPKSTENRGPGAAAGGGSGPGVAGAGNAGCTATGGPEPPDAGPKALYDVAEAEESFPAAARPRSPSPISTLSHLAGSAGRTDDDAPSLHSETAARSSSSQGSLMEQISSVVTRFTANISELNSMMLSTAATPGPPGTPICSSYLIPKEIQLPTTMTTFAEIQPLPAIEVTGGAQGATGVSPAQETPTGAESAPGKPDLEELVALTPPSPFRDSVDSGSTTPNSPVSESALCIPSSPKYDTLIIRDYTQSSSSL
Chain of mGluR4 (Q14833 33-912): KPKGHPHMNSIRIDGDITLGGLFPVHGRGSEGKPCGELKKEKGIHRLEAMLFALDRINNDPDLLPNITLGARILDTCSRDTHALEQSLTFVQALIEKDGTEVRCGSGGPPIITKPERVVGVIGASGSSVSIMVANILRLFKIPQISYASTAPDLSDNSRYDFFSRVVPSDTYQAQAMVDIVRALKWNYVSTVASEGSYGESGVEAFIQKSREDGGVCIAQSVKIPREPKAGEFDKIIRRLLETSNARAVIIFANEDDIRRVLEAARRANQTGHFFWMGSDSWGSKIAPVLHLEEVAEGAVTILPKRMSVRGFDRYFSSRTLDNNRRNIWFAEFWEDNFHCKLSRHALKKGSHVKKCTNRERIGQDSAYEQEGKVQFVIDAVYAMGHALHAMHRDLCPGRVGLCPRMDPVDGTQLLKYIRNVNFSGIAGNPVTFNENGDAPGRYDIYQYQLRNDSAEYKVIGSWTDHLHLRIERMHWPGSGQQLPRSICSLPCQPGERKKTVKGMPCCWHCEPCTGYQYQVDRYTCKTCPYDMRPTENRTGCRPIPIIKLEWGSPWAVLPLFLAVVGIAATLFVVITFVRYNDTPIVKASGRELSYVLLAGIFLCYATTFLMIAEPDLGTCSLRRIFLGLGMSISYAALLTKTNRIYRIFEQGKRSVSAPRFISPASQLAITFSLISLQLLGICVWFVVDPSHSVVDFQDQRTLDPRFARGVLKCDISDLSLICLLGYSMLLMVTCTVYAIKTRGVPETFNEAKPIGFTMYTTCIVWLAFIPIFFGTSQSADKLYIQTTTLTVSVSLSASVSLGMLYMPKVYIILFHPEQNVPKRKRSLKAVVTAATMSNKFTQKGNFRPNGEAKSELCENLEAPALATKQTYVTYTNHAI

Cc1cc(Oc2cncc(F)c2)cc(C(=O)Nc2ccc(F)cn2)n1 [drawing 264, N-(5-fluoropyridin-2-yl)-4-((5-fluoropyridin-3-yl)oxy)-6-methylpicolinamide]
Permeability (Permeability/efflux): Predicted high | efflux (Permeability/efflux): no efflux | mGluR5 mode of action (mGluR5): NAM | Human PPB, % (Human PPB): 98.5% | solubility ([1]; FaSSIF, pH 6.5, fassif): 7 µg/mL (≈ 20.4 µM) | solubility [1, 7]: 70 µg/mL (≈ 204 µM)

CN1CC(=O)N=C1NC(=O)Nc1cccc(Cl)c1 [fenobam, 1-(3-chlorophenyl)-3-(1-methyl-4-oxo-4,5-dihydro-1H-imidazol-2-yl)urea]
effect in marble burying model [2]: effective in this model

Cc1cc(Oc2cncnc2)cc(C(=O)Nc2ccc(F)cn2)n1 [drawing 269]
Mouse BHB (%) (Mouse BHB): 92.2% | Plasma Concentration (nM) ([3]; 1 h): BLQ | Plasma Concentration (nM) ([3]; 3 h): BLQ | concentration at 0.25 h [3, 8]: 195 nM | concentration at 0.25 h [3, 9]: 15.2 nM | concentration at 0.5 h [3, 8]: 345 nM | concentration at 0.5 h [3, 9]: 26.9 nM | concentration at 1 h ([3]; brain, 1 h, read-out: Brain Concentration): 9.9 nM | concentration at 1 h ([3]; brain, 1 h, read-out: Free Brain Concentration): 0.8 nM | concentration at 3 h [3, 10]: 9.2 nM | concentration at 3 h [3, 11]: 0.7 nM | concentration at 0.25 h [3, 12]: 33.2 nM | concentration at 0.5 h [3, 12]: 77.4 nM

Cc1cc(Oc2cncc(F)c2)cc(C(=O)Nc2ccc(F)cn2)n1 [drawing 270]
Mouse BHB (%) (Mouse BHB): 98.5% | Brain Concentration (nM) ([3]; 1 h): BLQ | Plasma Concentration (nM) ([3]; 1 h): BLQ | concentration at 0.25 h [3, 8]: 176 nM | concentration at 0.25 h [3, 9]: 2.6 nM | concentration at 0.5 h [3, 8]: 143 nM | concentration at 0.5 h [3, 9]: 2.1 nM | concentration at 3 h [3, 10]: 19.6 nM | concentration at 3 h [3, 11]: 0.3 nM | concentration at 0.25 h [3, 12]: 48.3 nM | concentration at 0.5 h [3, 12]: 30.7 nM | concentration at 3 h ([3]; plasma, 3 h, read-out: Plasma Concentration): 3.2 nM

Cc1nc(C#Cc2cccnc2)cs1 [MTEP, 3-[(2-methyl-1,3-thiazol-4-yl)ethynyl]pyridine]
clearance [4]: efficiently cleared | inhibition of cytochrome P450 1A2 (cytochrome P450 1A2): potent inhibitor of cytochrome P450 1A2

Cc1cc(Oc2cncnc2)cc(C(=O)Nc2ccc(F)cn2)n1 [Compound (2), N-(5-fluoropyridin-2-yl)-6-methyl-4-(pyrimidin-5-yloxy)picolinamide]
inhibition of marble burying vs. vehicle ([5]; 3 mg/kg PO 15 min prior to testing, 0.5% MC, 30 min burying): inhibition of marble burying was observed | inhibition of marble burying vs. vehicle ([5]; 10 mg/kg PO 15 min prior to testing, 0.5% MC, 30 min burying): inhibition of marble burying was observed | time spent in the open arms (elevated plus maze): statistically significant increase in the time spent in the open arms | total distance traveled (elevated plus maze): statistically significant beneficial effect

Cc1nc(C#Cc2ccc(-c3cc(F)cc(C#N)c3)nc2)cs1 [STX107, reference compound]
inhibition of marble burying vs. vehicle ([5]; positive control, 10 mg/kg free base IP 60 min ptx): inhibition of marble burying was observed

Cc1cccc(C#Cc2ccccc2)n1 [MPEP, 2-methyl-6-(phenylethynyl)pyridine]
effect on NMDA receptor activity [6]: directly inhibit the N-methyl-D-aspartate (NMDA) receptor activity | activity at mGluR4 (mGluR4): positive allosteric modulator of mGluR4 | effect in marble burying model [2]: effective in this model

Cc1cc(Oc2cncnc2)cc(C(=O)Nc2ccc(F)cn2)n1 [drawing 263, N-(5-fluoropyridin-2-yl)-6-methyl-4-(pyrimidin-5-yloxy)picolinamide]
Permeability (Permeability/efflux): Predicted high | efflux (Permeability/efflux): no efflux | mGluR5 mode of action (mGluR5): NAM | Human PPB, % (Human PPB): 91.4% | solubility ([1]; FaSSIF, pH 6.5, fassif): 47 µg/mL (≈ 144 µM) | solubility [1, 7]: 205 µg/mL (≈ 630 µM)

— patent publication US9085562B2, “6-alkyl-N-(pyridin-2-yl)-4-aryloxypicolinamide analogs as mGluR5 negative allosteric modulators and methods of making and using the same” (Vanderbilt University, priority 2011, dated 2015)
